This is an account of results in US8143290B2, “Chemical compounds 572” (AstraZeneca AB, priority 2006, dated 2012).

Structures can show the parent of a compound that is named as a salt.

Usually IC50 stands for the concentration needed to halve the response being measured.

This test has as its target T1, recombinant human GR (Homo sapiens, UniProt P04150).
T1 construct: purchased Panvera/Invitrogen P2812 (kit P2893)
T1 sequence (P04150 1-777): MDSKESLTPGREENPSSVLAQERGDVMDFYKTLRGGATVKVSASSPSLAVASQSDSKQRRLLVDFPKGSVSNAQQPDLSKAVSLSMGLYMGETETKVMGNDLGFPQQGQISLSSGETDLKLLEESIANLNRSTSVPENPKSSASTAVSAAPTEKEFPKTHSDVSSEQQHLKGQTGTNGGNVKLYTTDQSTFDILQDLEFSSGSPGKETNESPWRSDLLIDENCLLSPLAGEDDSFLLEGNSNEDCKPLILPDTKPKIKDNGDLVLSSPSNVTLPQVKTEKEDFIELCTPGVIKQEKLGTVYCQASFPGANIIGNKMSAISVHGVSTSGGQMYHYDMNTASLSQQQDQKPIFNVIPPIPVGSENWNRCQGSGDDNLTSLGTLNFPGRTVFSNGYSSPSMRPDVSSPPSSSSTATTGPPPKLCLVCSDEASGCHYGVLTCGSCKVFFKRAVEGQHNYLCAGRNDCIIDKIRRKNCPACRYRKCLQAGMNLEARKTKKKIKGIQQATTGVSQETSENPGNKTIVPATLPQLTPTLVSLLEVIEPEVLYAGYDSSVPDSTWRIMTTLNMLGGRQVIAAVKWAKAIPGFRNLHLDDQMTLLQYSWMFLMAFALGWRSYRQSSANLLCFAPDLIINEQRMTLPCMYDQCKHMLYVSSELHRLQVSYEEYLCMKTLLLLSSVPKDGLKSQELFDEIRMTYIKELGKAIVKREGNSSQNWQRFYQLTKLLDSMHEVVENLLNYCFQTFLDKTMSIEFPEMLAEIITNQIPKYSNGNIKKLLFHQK
Nature of the test: Human Glucocorticoid Receptor (GR) Assay, fluorescence polarization. The settings on record: GS Red tracer, incubated 2 h at r.t., XLfit model 205, read-out: GRhuFL_FP_v2 Mean IC50. It is filed as binding. In short, it runs like this:
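After 2 h dark incubation at r.t., polarization reported displacement of the GS Red tracer from recombinant GR, in buffer with phosphate, molybdate, EDTA, DTT and Stabilizing Peptide. Controls: dexamethasone (100%) and DMSO (0%).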
A general note: Polarisation of emitted light reports the rotation of a fluorescent probe.
For the molecule `COc1cccc([C@@H](Oc2ccc3c(cnn3-c3ccc(F)cc3)c2)[C@H](C)NC(=O)[C@H]2CCCN2)c1` [Example 304, (R)-N-((1R,2S)-1-(1-(4-fluorophenyl)-1H-indazol-5-yloxy)-1-(3-methoxyphenyl)propan-2-yl)pyrrolidine-2-carboxamide trifluoroacetic acid salt], the IC50 was 7.5 nM.

On to `COCC(=O)N[C@@H](C)[C@H](Oc1ccc2c(cnn2-c2ccc(F)cc2)c1)c1ccc(OC)c(F)c1` [Example 262, N-[(1R,2S)-1-(3-fluoro-4-methoxy-phenyl)-1-[1-(4-fluorophenyl)indazol-5-yl]oxy-propan-2-yl]-2-methoxy-acetamide], for which the half-inhibitory concentration (IC50) was determined as 4.5 nM.

Turning to `C[C@H](NC(=O)C(C)(F)F)[C@H](Oc1ccc2c(cnn2-c2ccc(F)cc2)c1)c1cccc(Cl)c1` [Example 232, N-[(1R,2S)-1-(3-chlorophenyl)-1-[1-(4-fluorophenyl)indazol-5-yl]oxy-propan-2-yl]-2,2-difluoro-propanamide], the IC50 was 5.4 nM.

Take `COc1cccc([C@@H](Oc2ccc3c(cnn3-c3ccc(F)cc3)c2)[C@H](C)NC(=O)c2ccon2)c1` [Example 280, N-[(1R,2S)-1-[1-(4-fluorophenyl)indazol-5-yl]oxy-1-(3-methoxyphenyl)propan-2-yl]1,2-oxazole-3-carboxamide]: the IC50 worked out at 3.6 nM.

As to `COc1cccc([C@@H](Oc2ccc3c(cnn3-c3ccc(F)cc3)c2)[C@H](C)NC(=O)CO)c1` [Example 121, N-[(1R,2S)-1-[1-(4-fluorophenyl)indazol-5-yl]oxy-1-(3-methoxyphenyl)propan-2-yl]-2-hydroxy-acetamide], the half-inhibitory concentration (IC50) worked out at 2.8 nM.

As to `Cc1ccc([C@@H](Oc2ccc3c(cnn3-c3ccc(F)cc3)c2)[C@H](C)NC(=O)C(F)(F)F)cc1F` [Example 151, 2,2,2-trifluoro-N-[(1R,2S)-1-(3-fluoro-4-methyl-phenyl)-1-[1-(4-fluorophenyl)indazol-5-yl]oxy-propan-2-yl]acetamide], the IC50 turned out to be 32 nM.

As for `COc1ccc(F)cc1[C@@H](Oc1ccc2c(cnn2-c2ccc(F)cc2)c1)[C@H](C)NC(=O)C(C)(F)F` [Example 235, 2,2-difluoro-N-[(1R,2S)-1-(5-fluoro-2-methoxy-phenyl)-1-[1-(4-fluorophenyl)indazol-5-yl]oxy-propan-2-yl]propanamide], the IC50 is 5.4 nM.

`CCOC(=O)C(=O)N[C@@H](C)[C@H](Oc1ccc2c(cnn2-c2ccc(F)cc2)c1)c1cccc(OC)c1` [Example 78, Ethyl [(1R,2S)-1-[1-(4-fluorophenyl)indazol-5-yl]oxy-1-(3-methoxyphenyl)propan-2-yl]carbamoylformate]: the IC50 came out at 3.2 nM.

Regarding `COc1cccc([C@@H](Oc2ccc3c(cnn3-c3ccc(F)cc3)c2)[C@H](C)NC(=O)[C@@H](C)N)c1` [Example 303, (R)-2-amino-N-((1R,2S)-1-(1-(4-fluorophenyl)-1H-indazol-5-yloxy)-1-(3-methoxyphenyl)propan-2-yl)propanamide trifluoroacetic acid salt], the half-maximal inhibitory concentration (IC50) was 5 nM.

As to `C[C@H](NC(=O)C(F)(F)F)[C@H](Oc1ccc2c(cnn2-c2ccc(F)cc2)c1)c1ccc(C(C)(C)C)cc1` [Example 163, 2,2,2-trifluoro-N-[(1R,2S)-1-[1-(4-fluorophenyl)indazol-5-yl]oxy-1-(4-tert-butylphenyl)propan-2-yl]acetamide], the half-inhibitory concentration (IC50) was 16 nM.

For `C[C@H](NC(=O)NC1CCCC1)[C@H](Oc1ccc2c(cnn2-c2ccc(F)cc2)c1)c1ccccc1` [Example 104], the IC50 was found to be 3.6 nM.

For `C[C@H](O)C(=O)N[C@@H](C)[C@H](Oc1ccc2c(cnn2-c2ccc(F)cc2)c1)c1ccccc1` [Example 48, (2S)-N-[(1R,2S)-1-[1-(4-fluorophenyl)indazol-5-yl]oxy-1-phenyl-propan-2-yl]-2-hydroxy-propanamide], the IC50 was 2.9 nM.

As to `CC(=O)N[C@@H](C)[C@H](Oc1cc2cnn(-c3ccc(F)cc3)c2cc1Cl)c1ccc(F)cc1` (single isomer, unassigned) [Example 101, N-[(1S*,2R*)-1-[6-chloro-1-(4-fluorophenyl)indazol-5-yl]oxy-1-(4-fluorophenyl)propan-2-yl]acetamide], the IC50 was 15 nM.

`COc1cccc([C@@H](Oc2ccc3c(cnn3-c3ccc(F)cc3)c2)[C@H](C)NC(=O)c2cc(C)n(C)n2)c1` [Example 287, N-[(1R,2S)-1-[1-(4-fluorophenyl)indazol-5-yl]oxy-1-(3-methoxyphenyl)propan-2-yl]-1,5-dimethyl-pyrazole-3-carboxamide]: the IC50 was found to be 4.3 nM.

On to `C[C@H](NC(=O)CF)[C@H](Oc1ccc2c(cnn2-c2ccc(F)cc2)c1)c1ccccc1` [Example 45, 2-Fluoro-N-[(1R,2S)-1-[1-(4-fluorophenyl)indazol-5-yl]oxy-1-phenyl-propan-2-yl]acetamide], for which the IC50 was 2.6 nM.

`C[C@H](NC(=O)C(F)(F)F)[C@H](Oc1ccc2c(cnn2-c2ccc(F)cc2)c1)c1cccc(Cl)c1` [Example 155, N-[(1R,2S)-1-(3-chlorophenyl)-1-[1-(4-fluorophenyl)indazol-5-yl]oxy-propan-2-yl]-2,2,2-trifluoro-acetamide]: the IC50 worked out at 5 nM.

As for `COCC(=O)N[C@@H](CC(C)C)[C@H](Oc1ccc2c(cnn2-c2ccc(F)cc2)c1)c1cccc(F)c1` [Example 109, N-{(1S)-1-[(R)-(3-Fluorophenyl)-{[1-(4-fluorophenyl)-1H-indazole-5-yl]oxy}methyl]-3-methyl-butyl}-2-methoxyacetamide], the IC50 amounted to 23 nM.

`C[C@H](NC(=O)C1(O)CC1)[C@H](Oc1ccc2c(cnn2-c2ccc(F)cc2)c1)c1ccc(C(F)(F)F)cc1` [Example 139, N-[(1R,2S)-1-[1-(4-fluorophenyl)indazol-5-yl]oxy-1-[4-(trifluoromethyl)phenyl]propan-2-yl]-1-hydroxy-cyclopropane-1-carboxamide]: the IC50 was 4.1 nM.

Take `Cc1cccc([C@@H](Oc2ccc3c(cnn3-c3ccc(F)cc3)c2)[C@H](C)NC(=O)C2(C)CC2)c1` [Example 225, N-[(1R,2S)-1-[1-(4-fluorophenyl)indazol-5-yl]oxy-1-(3-methylphenyl)propan-2-yl]-1-methyl-cyclopropane-1-carboxamide]: the IC50 stood at 4.8 nM.

For the molecule `Cc1cnc(C(=O)N[C@@H](C)[C@H](Oc2ccc3c(cnn3-c3ccc(F)cc3)c2)c2ccc(F)cc2C)s1` [Example 200, N-[(1R,2S)-1-(4-fluoro-2-methyl-phenyl)-1-[1-(4-fluorophenyl)indazol-5-yl]oxy-propan-2-yl]-5-methyl-1,3-thiazole-2-carboxamide], the IC50 was determined as 4.6 nM.

Turning to `Cc1ccc([C@@H](Oc2ccc3c(cnn3-c3ccc(F)cc3)c2)[C@H](C)NC(=O)C(F)(F)F)c(C)c1` [Example 154, N-[(1R,2S)-1-(2,4-dimethylphenyl)-1-[1-(4-fluorophenyl)indazol-5-yl]oxy-propan-2-yl]-2,2,2-trifluoro-acetamide], the IC50 is 4.7 nM.

As for `Cc1cnc(C(=O)N[C@@H](C)[C@H](Oc2ccc3c(cnn3-c3ccc(F)cc3)c2)c2ccc(C)c(F)c2)s1` [Example 194, N-[(1R,2S)-1-(3-fluoro-4-methyl-phenyl)-1-[1-(4-fluorophenyl)indazol-5-yl]oxy-propan-2-yl]-5-methyl-1,3-thiazole-2-carboxamide], the IC50 worked out at 3.9 nM.

For `COc1cccc([C@@H](Oc2ccc3c(cnn3-c3ccc(F)cc3)c2)[C@H](C)NC(=O)c2cc(C)c(C)s2)c1` [Example 291, N-[(1R,2S)-1-[1-(4-fluorophenyl)indazol-5-yl]oxy-1-(3-methoxyphenyl)propan-2-yl]-4,5-dimethyl-thiophene-2-carboxamide], the half-inhibitory concentration (IC50) was 6.4 nM.

Take `CCC[C@H](NC(=O)C(C)(C)C)[C@H](Oc1ccc2c(cnn2-c2ccc(F)cc2)c1)c1ccccc1` [Example 92, N-((1R,2S)-1-(1-(4-fluorophenyl)-1H-indazol-5-yloxy)-1-phenylpentan-2-yl)pivalamide]: the IC50 is 3.8 nM.

Regarding `Cc1cc(C)c([C@@H](Oc2ccc3c(cnn3-c3ccc(F)cc3)c2)[C@H](C)NC(=O)C2(C)CC2)cc1C` [Example 224, N-[(1R,2S)-1-[1-(4-fluorophenyl)indazol-5-yl]oxy-1-(2,4,5-trimethylphenyl)propan-2-yl]-1-methyl-cyclopropane-1-carboxamide], the IC50 came to 5.7 nM.

As for `Cc1ccc(F)cc1[C@@H](Oc1ccc2c(cnn2-c2ccc(F)cc2)c1)[C@H](C)NC(=O)C(C)(C)C` [Example 180, N-[(1R,2S)-1-(5-fluoro-2-methyl-phenyl)-1-[1-(4-fluorophenyl)indazol-5-yl]oxy-propan-2-yl]-2,2-dimethyl-propanamide], the IC50 worked out at 6.8 nM.
